# Reference: the supplement of paper PMC9663587
# Experiments:
# [1] = compound: CC(=O)c1c(C)c2cnc(Nc3ccc(N4CCNCC4)cn3)nc2n(C2CCCC2)c1=O; assay: GR value, 72 h; higher = faster growth (1 = untreated, <0 = killing);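 note: breast cancer and non-malignant breast epithelial lines, nine half-log doses, viable cells counted by Hoechst and LIVE/DEAD dye imaging versus time-zero plates and DMSO controls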
# THZ531 = compound: CN(C)C/C=C/C(=O)Nc1ccc(C(=O)N2CCC[C@@H](Nc3ncc(Cl)c(-c4c[nH]c5ccccc45)n3)C2)cc1 [THZ531]; assay: as above
# THZ1 [2] = compound: T1, CN(C)C/C=C/C(=O)Nc1ccc(C(=O)Nc2cccc(Nc3ncc(Cl)c(-c4c[nH]c5ccccc45)n3)c2)cc1 [THZ1]; assay: as above
# Flavopiridol [3] = compound: T2, CN1CC[C@H](c2c(O)cc(O)c3c(=O)cc(-c4ccccc4Cl)oc23)[C@H](O)C1 [Flavopiridol]; assay: as above
# Neratinib/HKI272 = compound: CCOc1cc2ncc(C#N)c(Nc3ccc(OCc4ccccn4)c(Cl)c3)c2cc1NC(=O)/C=C/CN(C)C [Neratinib/HKI272]; assay: increase in dead-cell fraction, 72 h; higher = more death;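 note: breast cancer cell lines in 384-well plates, stained with Hoechst plus LIVE/DEAD far red dye and imaged, cells above an LDR intensity threshold counted dead, Hoechst-negative corpses included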
# BSJ-03-123 = compound: CC(=O)c1c(C)c2cnc(Nc3ccc(N4CCN(CCOCCOCCOCCNC(=O)COc5cccc6c5C(=O)N(C5CCC(=O)NC5=O)C6=O)CC4)cn3)nc2n(C2CCCC2)c1=O [BSJ-03-123]; assay: as above
# [4] = compound: CC(=O)c1c(C)c2cnc(Nc3ccc(N4CCNCC4)cn3)nc2n(C2CCCC2)c1=O; assay: as above
# [5] = compound: CCN1CCN(Cc2ccc(Nc3ncc(F)c(-c4cc(F)c5nc(C)n(C(C)C)c5c4)n3)nc2)CC1; assay: as above
# THZ1 [6] = compound: T1, THZ1; assay: as above
# LEE011/Ribociclib = compound: CN(C)C(=O)c1cc2cnc(Nc3ccc(N4CCNCC4)cn3)nc2n1C1CCCC1 [LEE011/Ribociclib]; assay: as above
# [7] = compound: CCc1cnn2c(NCc3ccc[n+]([O-])c3)cc(N3CCCC[C@H]3CCO)nc12; assay: as above
# Flavopiridol [8] = compound: T2, Flavopiridol; assay: as above
cell line,measurement,setting,value
EFM19,GR value,[1]; 0.0003162 µM,1.05 GR
same,GR value,[1]; 0.001 µM,1.03 GR
same,GR value,[1]; 0.003162 µM,1.03 GR
same,GR value,[1]; 0.01 µM,1.02 GR
same,GR value,[1]; 0.03162 µM,0.941 GR
same,GR value,[1]; 0.1 µM,0.843 GR
same,GR value,[1]; 0.3162 µM,0.626 GR
same,GR value,[1]; 1 µM,0.401 GR
same,GR value,[1]; 3.162 µM,0.284 GR
same,GR value,THZ531; 0.0001 µM,0.996 GR
same,GR value,THZ531; 0.0003162 µM,0.978 GR
same,GR value,THZ531; 0.001 µM,0.907 GR
same,GR value,THZ531; 0.003162 µM,0.911 GR
same,GR value,THZ531; 0.01 µM,1.07 GR
same,GR value,THZ531; 0.03162 µM,0.896 GR
same,GR value,THZ531; 0.1 µM,1 GR
same,GR value,THZ531; 0.3162 µM,0.801 GR
same,GR value,THZ531; 1 µM,-0.59 GR
same,GR value,THZ1 [2]; 0.0001 µM,0.946 GR
same,GR value,THZ1 [2]; 0.0003162 µM,1.1 GR
same,GR value,THZ1 [2]; 0.001 µM,1.04 GR
same,GR value,THZ1 [2]; 0.003162 µM,0.932 GR
same,GR value,THZ1 [2]; 0.01 µM,1.01 GR
same,GR value,THZ1 [2]; 0.03162 µM,0.922 GR
same,GR value,THZ1 [2]; 0.1 µM,0.86 GR
same,GR value,THZ1 [2]; 0.3162 µM,0.69 GR
same,GR value,THZ1 [2]; 1 µM,-0.299 GR
same,GR value,Flavopiridol [3]; 0.0001 µM,1.03 GR
same,GR value,Flavopiridol [3]; 0.0003162 µM,0.976 GR
same,GR value,Flavopiridol [3]; 0.001 µM,0.978 GR
same,GR value,Flavopiridol [3]; 0.003162 µM,0.991 GR
same,GR value,Flavopiridol [3]; 0.01 µM,0.877 GR
same,GR value,Flavopiridol [3]; 0.03162 µM,0.976 GR
same,GR value,Flavopiridol [3]; 0.1 µM,0.809 GR
same,GR value,Flavopiridol [3]; 0.3162 µM,0.466 GR
same,GR value,Flavopiridol [3]; 1 µM,-0.199 GR
same,increase in dead-cell fraction,Neratinib/HKI272; 0.0003162 µM,-0.0049
same,increase in dead-cell fraction,Neratinib/HKI272; 0.001 µM,-0.0044
same,increase in dead-cell fraction,Neratinib/HKI272; 0.003162 µM,-0.0012
same,increase in dead-cell fraction,Neratinib/HKI272; 0.01 µM,-0.0052
same,increase in dead-cell fraction,Neratinib/HKI272; 0.03162 µM,-0.0028
same,increase in dead-cell fraction,Neratinib/HKI272; 0.1 µM,-0.0038
same,increase in dead-cell fraction,Neratinib/HKI272; 0.3162 µM,-0.0011
same,increase in dead-cell fraction,Neratinib/HKI272; 1 µM,-0.0033
same,increase in dead-cell fraction,Neratinib/HKI272; 3.162 µM,0.0028
same,increase in dead-cell fraction,BSJ-03-123; 0.001 µM,-0.0051
same,increase in dead-cell fraction,BSJ-03-123; 0.003162 µM,-0.0117
same,increase in dead-cell fraction,BSJ-03-123; 0.01 µM,0.001
same,increase in dead-cell fraction,BSJ-03-123; 0.03162 µM,0.0013
same,increase in dead-cell fraction,BSJ-03-123; 0.1 µM,-0.0048
same,increase in dead-cell fraction,BSJ-03-123; 0.3162 µM,-0.0048
same,increase in dead-cell fraction,BSJ-03-123; 1 µM,0.009
same,increase in dead-cell fraction,BSJ-03-123; 3.162 µM,0.0049
same,increase in dead-cell fraction,BSJ-03-123; 10 µM,0.0309
same,increase in dead-cell fraction,[4]; 0.0003162 µM,-0.0086
same,increase in dead-cell fraction,[4]; 0.001 µM,-0.0086
same,increase in dead-cell fraction,[4]; 0.003162 µM,-0.0036
same,increase in dead-cell fraction,[4]; 0.01 µM,-0.0059
same,increase in dead-cell fraction,[4]; 0.03162 µM,-0.0024
same,increase in dead-cell fraction,[4]; 0.1 µM,-0.0087
same,increase in dead-cell fraction,[4]; 0.3162 µM,0.0108
same,increase in dead-cell fraction,[4]; 1 µM,0.0355
same,increase in dead-cell fraction,[4]; 3.162 µM,0.0448
same,increase in dead-cell fraction,[5]; 0.001 µM,-0.0101
same,increase in dead-cell fraction,[5]; 0.003162 µM,-0.0007
same,increase in dead-cell fraction,[5]; 0.01 µM,0.0035
same,increase in dead-cell fraction,[5]; 0.03162 µM,0.0136
same,increase in dead-cell fraction,[5]; 0.1 µM,0.0179
same,increase in dead-cell fraction,[5]; 0.3162 µM,0.0249
same,increase in dead-cell fraction,[5]; 1 µM,0.0149
same,increase in dead-cell fraction,[5]; 3.162 µM,0.0183
same,increase in dead-cell fraction,[5]; 10 µM,0.0445
same,increase in dead-cell fraction,THZ1 [6]; 0.0001 µM,-0.004
same,increase in dead-cell fraction,THZ1 [6]; 0.0003162 µM,-0.0048
same,increase in dead-cell fraction,THZ1 [6]; 0.001 µM,-0.0107
same,increase in dead-cell fraction,THZ1 [6]; 0.003162 µM,-0.0093
same,increase in dead-cell fraction,THZ1 [6]; 0.01 µM,-0.0068
same,increase in dead-cell fraction,THZ1 [6]; 0.03162 µM,-0.0102
same,increase in dead-cell fraction,THZ1 [6]; 0.1 µM,-0.002
same,increase in dead-cell fraction,THZ1 [6]; 0.3162 µM,0.0031
same,increase in dead-cell fraction,THZ1 [6]; 1 µM,0.215
same,increase in dead-cell fraction,LEE011/Ribociclib; 0.001 µM,-0.0027
same,increase in dead-cell fraction,LEE011/Ribociclib; 0.003162 µM,-0.0038
same,increase in dead-cell fraction,LEE011/Ribociclib; 0.01 µM,-0.0001
same,increase in dead-cell fraction,LEE011/Ribociclib; 0.03162 µM,-0.0005
same,increase in dead-cell fraction,LEE011/Ribociclib; 0.1 µM,0.0163
same,increase in dead-cell fraction,LEE011/Ribociclib; 0.3162 µM,0.0047
same,increase in dead-cell fraction,LEE011/Ribociclib; 1 µM,0.0042
same,increase in dead-cell fraction,LEE011/Ribociclib; 3.162 µM,0.0248
same,increase in dead-cell fraction,LEE011/Ribociclib; 10 µM,0.0149
same,increase in dead-cell fraction,[7]; 0.0001 µM,-0.0077
same,increase in dead-cell fraction,[7]; 0.0003162 µM,-0.0011
same,increase in dead-cell fraction,[7]; 0.001 µM,-0.006
same,increase in dead-cell fraction,[7]; 0.003162 µM,-0.0052
same,increase in dead-cell fraction,[7]; 0.01 µM,-0.0076
same,increase in dead-cell fraction,[7]; 0.03162 µM,0.0197
same,increase in dead-cell fraction,[7]; 0.1 µM,0.148
same,increase in dead-cell fraction,[7]; 0.3162 µM,0.323
same,increase in dead-cell fraction,[7]; 1 µM,0.478
same,increase in dead-cell fraction,Flavopiridol [8]; 0.0001 µM,-0.0095
same,increase in dead-cell fraction,Flavopiridol [8]; 0.0003162 µM,-0.003
same,increase in dead-cell fraction,Flavopiridol [8]; 0.001 µM,-0.0007
same,increase in dead-cell fraction,Flavopiridol [8]; 0.003162 µM,0.0016
same,increase in dead-cell fraction,Flavopiridol [8]; 0.01 µM,0.0002
same,increase in dead-cell fraction,Flavopiridol [8]; 0.03162 µM,-0.0106
same,increase in dead-cell fraction,Flavopiridol [8]; 0.1 µM,-0.0044
same,increase in dead-cell fraction,Flavopiridol [8]; 0.3162 µM,0.0118
same,increase in dead-cell fraction,Flavopiridol [8]; 1 µM,0.223
